Here are results for one compound from article PMC7044277 (Nature Communications, 2020).

Several values for one entry are separate records, joined by “and”; a condition that tells them apart may be missing. Equal values may be shown once.

What all share (assay type): cell-based
Assay [1] addresses T1, 320 non-olfactory GPCRs (Homo sapiens, UniProt P41231).
T1 construct: expressed in transfected cells; host or cells: HTLA cells
Particulars: receptor P2RY2; replicate values, Fig_4g.

The target of assay [2] is T2, 320 non-olfactory GPCRs (Homo sapiens, UniProt Q5T601).
T2 construct: expressed in transfected cells; host or cells: HTLA cells

Assay [3] addresses T3, 320 non-olfactory GPCRs (Homo sapiens, UniProt O95838).
T3 construct: expressed in transfected cells; host or cells: HTLA cells

The target of assay [4] is 320 non-olfactory GPCRs (Homo sapiens, UniProt P21554).
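Wherever Fold of Basal is given: compound tested at 1 µM final concentration.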
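Wherever GPCRome agonism screen response is given: fold over basal response of each receptor without drug.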

T2 sequence (Q5T601 20-910): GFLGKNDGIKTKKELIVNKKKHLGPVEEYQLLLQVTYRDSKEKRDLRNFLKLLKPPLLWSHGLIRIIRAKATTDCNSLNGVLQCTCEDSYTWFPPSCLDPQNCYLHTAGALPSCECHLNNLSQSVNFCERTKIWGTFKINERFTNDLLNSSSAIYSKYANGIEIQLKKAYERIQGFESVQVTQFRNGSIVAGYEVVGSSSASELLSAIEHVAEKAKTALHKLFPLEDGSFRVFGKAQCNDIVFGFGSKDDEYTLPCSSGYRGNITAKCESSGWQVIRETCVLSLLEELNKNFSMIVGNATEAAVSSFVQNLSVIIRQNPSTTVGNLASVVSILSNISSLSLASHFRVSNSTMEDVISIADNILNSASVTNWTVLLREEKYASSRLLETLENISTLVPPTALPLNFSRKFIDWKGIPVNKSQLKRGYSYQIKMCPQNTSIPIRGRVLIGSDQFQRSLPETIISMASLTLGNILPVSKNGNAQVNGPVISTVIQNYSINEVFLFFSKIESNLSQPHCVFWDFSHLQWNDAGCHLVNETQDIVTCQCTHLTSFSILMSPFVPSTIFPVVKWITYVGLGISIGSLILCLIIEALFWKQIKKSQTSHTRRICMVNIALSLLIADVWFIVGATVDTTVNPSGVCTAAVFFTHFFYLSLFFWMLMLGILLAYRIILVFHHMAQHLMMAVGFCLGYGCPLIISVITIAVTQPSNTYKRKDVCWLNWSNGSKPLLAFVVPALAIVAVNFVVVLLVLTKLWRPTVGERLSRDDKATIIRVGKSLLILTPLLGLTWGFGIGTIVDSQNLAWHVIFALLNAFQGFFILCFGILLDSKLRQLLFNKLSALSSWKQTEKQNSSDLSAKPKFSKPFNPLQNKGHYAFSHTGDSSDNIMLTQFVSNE
T1 sequence (P41231 whole entry): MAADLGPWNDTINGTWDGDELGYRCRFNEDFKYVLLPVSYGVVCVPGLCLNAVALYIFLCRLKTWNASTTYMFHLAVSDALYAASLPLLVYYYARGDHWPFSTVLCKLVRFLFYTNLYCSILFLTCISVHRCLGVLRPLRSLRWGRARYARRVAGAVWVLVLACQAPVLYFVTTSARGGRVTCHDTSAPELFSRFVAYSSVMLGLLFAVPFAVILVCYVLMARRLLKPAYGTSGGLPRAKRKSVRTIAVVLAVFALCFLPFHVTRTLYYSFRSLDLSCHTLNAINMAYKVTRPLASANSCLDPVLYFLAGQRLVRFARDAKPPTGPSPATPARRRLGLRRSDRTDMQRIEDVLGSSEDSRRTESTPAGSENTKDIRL
Chain of 320 non-olfactory GPCRs (Homo sapiens, UniProt P21554) (P21554 whole entry): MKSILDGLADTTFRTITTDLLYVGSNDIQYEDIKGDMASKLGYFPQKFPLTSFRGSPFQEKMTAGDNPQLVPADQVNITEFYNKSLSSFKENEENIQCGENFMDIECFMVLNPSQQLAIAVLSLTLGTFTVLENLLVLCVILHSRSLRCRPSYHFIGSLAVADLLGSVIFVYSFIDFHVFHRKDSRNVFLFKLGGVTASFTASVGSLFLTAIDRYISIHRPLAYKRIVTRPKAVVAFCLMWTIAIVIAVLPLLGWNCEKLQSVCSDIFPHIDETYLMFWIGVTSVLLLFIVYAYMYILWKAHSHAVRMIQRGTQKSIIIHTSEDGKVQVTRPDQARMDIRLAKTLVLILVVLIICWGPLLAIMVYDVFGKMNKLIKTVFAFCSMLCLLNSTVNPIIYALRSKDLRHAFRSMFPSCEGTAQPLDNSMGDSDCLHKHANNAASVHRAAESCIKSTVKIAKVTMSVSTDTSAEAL
T3 sequence (O95838 whole entry): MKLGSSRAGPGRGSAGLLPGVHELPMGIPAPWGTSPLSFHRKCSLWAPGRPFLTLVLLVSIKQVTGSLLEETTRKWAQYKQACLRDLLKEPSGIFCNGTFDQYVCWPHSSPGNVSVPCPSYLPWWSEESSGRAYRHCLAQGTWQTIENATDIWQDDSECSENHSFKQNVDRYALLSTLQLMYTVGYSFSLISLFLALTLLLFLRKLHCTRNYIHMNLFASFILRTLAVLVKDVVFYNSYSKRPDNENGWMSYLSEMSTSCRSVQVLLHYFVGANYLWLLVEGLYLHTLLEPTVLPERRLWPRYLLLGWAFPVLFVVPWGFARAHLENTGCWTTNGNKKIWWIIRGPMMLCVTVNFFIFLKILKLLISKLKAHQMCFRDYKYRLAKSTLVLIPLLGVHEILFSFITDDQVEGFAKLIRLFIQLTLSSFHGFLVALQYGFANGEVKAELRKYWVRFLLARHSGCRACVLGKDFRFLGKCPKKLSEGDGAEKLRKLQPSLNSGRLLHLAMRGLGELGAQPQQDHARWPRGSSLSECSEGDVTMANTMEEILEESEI

Consider `CCOc1cccc2cc(C(C)NCC3(O)CCCCC3)oc12` (stereo not shown) [O4LE6], for which the “GPCRome agonism screen response” value on 320 non-olfactory GPCRs [1] was 1.397 and 0.7849 and 2.272 and 0.7466. The “Fold of Basal” value at 320 non-olfactory GPCRs [2] was 0.7534 and 0.5781 and 0.7634; at 320 non-olfactory GPCRs [3], 0.5783 and 0.9087 and 0.8921 and 0.8331; on 320 non-olfactory GPCRs [4] it was 1.089 and 1.197 and 0.9218 and 0.8315.
